≈ marks a conversion by molar mass, not a printed value.

The nature of data set [1]: Flux measurements by MicroFlux. The note with it: for Papp: not told, sink conditions, average ± SD (n = 3); for Flux in pH 6.5 buffer + 0.05% SLS compared with pH 6.5 buffer: sink conditions (5 μg/mL griseofulvin, 100 μg/mL triamcinolone).
Method: (§1) The concentration–time profiles were determined via manual sampling from the donor chambers and acceptor chambers during flux measurements. At 0, 30, 60, 120, 240, and 360 min, 100 μL of the acceptor chamber solution was withdrawn and diluted to 100 μL (2× dilution) of 3:2 DMA:ethylene glycol (v/v). At the same time point, 400 μL of the donor chamber solution was withdrawn and filtered through a polytetrafluoroethylene (PTFE) membrane filter of 0.22 μm pose size. Then, 100 μL of the filtered solution was diluted to 100 μL (2× dilution) of 3:2 DMA:ethylene glycol (v/v). The sample concentration was determined by ultra-high-performance liquid chromatography (UHPLC).
From the obtained concentration–time profiles in the acceptor chambers, the flux (J) was calculated. The flux refers to the mass transfer through the membrane, and it is defined as the total amount of material crossing one unit area of the membrane per unit time, as described by Equation (11):(11) J (t)=1/A·dm/dt= V/A·dC(t)/dt where dm/dt (μg/mL) is the total amount of material crossing the membrane per unit time, A is the area of the membrane (1.54 cm^2), V is the volume of the acceptor chamber (20 mL), and dC(t)/dt (μg/(mL⋅min)) is the slope of the concentration–time profiles in the acceptor chambers. Time intervals were selected in each test to exclude the lag time of the concentration–time profile and calculate the initial flux. […] Based on Fick’s first law, assuming the sink condition in the acceptor chambers, the flux can be described by Equation (12):(12) J (t)=PappCD(t) where Papp is the apparent permeability of drugs and CD (t) is the drug concentration in the donor chambers.
The sample concentrations were measured on a Waters (Milford, MA) Acquity UPLC H-Class system. An Acquity UPLC® BEH Shield RP18 1.7 μm, 2.1 × 50 mm, was used for chromatographic separation. A gradient mobile phase, spanning 95:5 to 0:100 (v/v) water:MeCN (both containing 0.05%TFA) over 2.0 min, was pumped at a flow rate of 1.0 mL/min. […] The injection volume and ultraviolet (UV) wavelength for triamcinolone were 1 μL and 292 nm, respectively.
The conditions of data set [2]: pH 6.5.
Method: as §1
(§2) The sample concentrations were measured on a Waters (Milford, MA) Acquity UPLC H-Class system. An Acquity UPLC® BEH Shield RP18 1.7 μm, 2.1 × 50 mm, was used for chromatographic separation. A gradient mobile phase, spanning 95:5 to 0:100 (v/v) water:MeCN (both containing 0.05%TFA) over 2.0 min, was pumped at a flow rate of 1.0 mL/min.
The conditions of data set [3]: 37 °C; cited from earlier work.
A short description of data set [4]: Theoretical calculation about permeability. The note with it: for Apparent permeability and flux reduced to (fraction): calculated, sink conditions, donor 5 μg/mL; for Papp: not told; for Calculated Pm (app): Equation (3); for Calculated Daq (app): Equation (5), hUWL (app) = 100 μm; for Calculated Pm (U): pH 6.5 buffer. The protocol:
Based on Fick’s first law, flux in the drug permeation can be expressed as shown in Equation (1): [36, 43]
As described in the introduction, overall permeation can be divided into membrane permeation and UWL permeation.
Pm (app) is calculated using the fraction of UFDs (FU) as shown in Equation (3):(3) Pm (app)= FUPm (U) where Pm (U) is the intrinsic permeability of UFDs.
PUWL (app) can be expressed using the apparent aqueous diffusivity (Daq (app)) from Fick’s first law as shown in Equation (5): (5) PUWL (app)= Daq (app)/hUWL (app) where hUWL (app) is the apparent thickness of the UWL. When there are no solubilizer additives in the drug formulation or test media in the permeability measurements, Equation (5) can be described as shown in Equation (6):(6) PUWL (U)= Daq (U)/hUWL (U) where hUWL (U) is the intrinsic thickness of the UWL and Daq (U) is the intrinsic aqueous diffusivity of UFDs. The thickness of the UWL can be determined based on rotation speed in the flux experiment. If the rotation speed is constant, we can assume that the thickness of the UWL is constant, independent of the addition of solubilizer additives, as shown in Equation (7):(7) hUWL (app)= hUWL (U)
Substituting hUWL (app) of Equation (5) and hUWL (U) of Equation (6) for Equation (7), PUWL (app) is described as shown in Equation (8):(8) PUWL (app)= PUWL (U)×Daq (app)/Daq (U)
The apparent aqueous diffusivity (Daq (app)) is a combined total of each fraction of aqueous diffusivity as shown in Equation (9):(9) Daq (app)= FUDaq (U) + (1−FU)Daq (B) where FU is the same fraction of UFDs as in Equation (4) and Daq (B) is the aqueous diffusivity of drug molecules bound to solubilizer additives. PUWL (app) can be calculated by Equations (6), (8), and (9) as shown in Equation (10):(10) PUWL (app)= 1/hUWL (app) {FUDaq(U) + (1−FU)Daq (B)}
Using the MW of the model compounds, each Daq (U) was calculated (calculated Daq (U) in Table 4). The UWL thickness (hUWL (app) or hUWL (U)) for the MicroFlux^TM measurements in this study was estimated to be around 100 μm based on previous studies. The intrinsic UWL permeability of UFDs (PUWL (U)) was then calculated by Equation (6) (calculated PUWL (U) in Table 4).
The apparent membrane permeability (Pm (app)) was calculated by Equation (3) using the fraction of UFDs (FU) in Table 3 and Pm (U) (calculated Pm (app) in Table 5). […] The apparent aqueous diffusivity (Daq (app)) was calculated by Equation (5) using PUWL (app) and hUWL (app) = 100 μm (calculated Daq (app) in Table 5). Substituting FU, Daq (app), and Daq (U) in Equation (9), the aqueous diffusivity of drug molecules bound to SLS (Daq (B)) was calculated (calculated Daq (B) in Table 5). As for triamcinolone, Daq (B) was not calculated in this study. […] As the aggregated number of SLS in aqueous solutions was reported to be 62, their micellar weight appeared to be around 18,000 Da. […] Assuming this micellar size is constant, permeability and flux could be calculated by Equation (10) and Equation (12) using the apparent solubility.
When pH 6.5 buffer is in the donor chamber, the apparent UWL thickness is expressed using Equations (2) and (6) as shown in Equation (14):(14) hUWL (app)=Daq (U)(1/Papp−1/Pm (U))

A short description of data set [5]: physchem. As to conditions: 37 °C, thermodynamic from solid.
Method: as §1, §2
Details of data set [6]: method as in PMID 20006692. The note with it: 500 mg dose; cited from earlier work.
On the set-up of data set [7]: method as in PMID 17724660, PMID 8668668, PMID 1808607. As to conditions: partitioning between octanol and water; cited from earlier work.
[8] abbreviates: pH 6.5, Measured Papp (U), pH 6.5 buffer.
[9] abbreviates: pH 6.5, Measured Papp, pH 6.5 buffer + 0.05% SLS.
Where [10] appears, read: pH 6.5, pH 6.5 buffer + 0.05% SLS, read-out: Calculated Papp (converted).
Setting [11] is: pH 6.5, pH 6.5 buffer, read-out: Calculated Papp (U) (converted).

Regarding `COC1=CC(=O)C[C@@H](C)[C@]12Oc1c(Cl)c(OC)cc(OC)c1C2=O` [Griseofulvin], the “Sample concentration in the donor chamber” value in data set [1] (50, 200 and 1000 μg/mL doses (non-sink), pH 6.5 buffer) is reported as “about 10 μg/mL”; in data set [1] (50, 200 and 1000 μg/mL doses (non-sink), pH 6.5 buffer + 0.05% SLS) it was “about 25 μg/mL”. Further, in data set [1] (based on Equation (12)), the “Apparent permeability in pH 6.5 buffer + 0.05% SLS compared with pH 6.5 buffer” value is reported as “almost half”. Moreover, the “Increase of total permeated amount when the dose amount exceeded solubility” value in data set [1] (donor concentration almost constant) is listed as 20–30%. For the same compound, in data set [1] (non-sink conditions, both pH 6.5 buffer and pH 6.5 buffer + 0.05% SLS), the “Flux increase depending on the dose amount” value was 10–30%. Moreover, the Papp in data set [1] (setting [8]) was 247 ×10⁻⁶ cm/s; in data set [1] (setting [9]) it was 108 ×10⁻⁶ cm/s; in data set [4] (setting [10]), 108 ×10⁻⁶ cm/s; in data set [4] (setting [11]) it was 247 ×10⁻⁶ cm/s. For the same compound, the “Flux in pH 6.5 buffer + 0.05% SLS compared with pH 6.5 buffer” value in data set [1] was “almost half”. The “Solubility change by the addition of 0.05% SLS” value in data set [2] is on record as “about 2.5 fold”. Besides, in data set [2], the “UFD Amount” value worked out at 10.75 µg/mL. In addition, in data set [3], the Aqueous solubility was 29.9 [40, 41] μg/mL. The figures for the “Apparent permeability and flux reduced to (fraction)” value in data set [4] (apparent solubility increased by 5 times) and in data set [4] (apparent solubility increased by 10 times) were “about 1/4” and 1/7, respectively. In data set [4] (drug molecules bound to SLS, Equation (9)), the “Calculated Daq (B)” value is reported as 8.37 × 10^−7 cm^2/s. Besides, the “Calculated PUWL (app)” value in data set [4] (pH 6.5 buffer + 0.05% SLS, Equation (2)) is 255 ×10⁻⁶ cm/s. Also, the “Calculated Pm (app)” value in data set [4] (pH 6.5 buffer + 0.05% SLS) was 187 ×10⁻⁶ cm/s. The “Calculated Daq (app)” value in data set [4] (pH 6.5 buffer + 0.05% SLS) is 2.56 × 10^−6 cm^2/s. The “Calculated Pm (U)” value in data set [4] (Equation (2)) is 473 ×10⁻⁶ cm/s. Besides, the solubility in data set [5] (pH 6.5, aqueous buffer) amounted to 10.8 ± 0.38 µg/mL (≈ 30.5 µM); in data set [5] (pH 6.5, aqueous with cosolvent or surfactant or cyclodextrin) it was 27.4 ± 0.07 µg/mL (≈ 77.7 µM). Further, in data set [6], the “Increase of in vivo permeability and in vivo drug absorption by solid drugs in the UWL” value was “about twofold”.
In the case of `C[C@]12C=CC(=O)C=C1CC[C@H]1[C@@H]3C[C@@H](O)[C@](O)(C(=O)CO)[C@@]3(C)C[C@H](O)[C@@]12F` [Triamcinolone], the “Sample concentration in the donor chamber” value in data set [1] (500, 2000 and 10,000 μg/mL doses (non-sink), pH 6.5 buffer and pH 6.5 buffer + 0.05% SLS) is reported as “about 200 μg/mL”. Also, the Papp in data set [1] (setting [8]) was 5.07 ×10⁻⁶ cm/s; in data set [1] (setting [9]) it was 4.38 ×10⁻⁶ cm/s; in data set [4] (setting [10]) it was 4.38 ×10⁻⁶ cm/s; in data set [4] (setting [11]) it was 5.07 ×10⁻⁶ cm/s. Besides, the “Flux and donor concentration at the 10,000 μg/mL dose, higher than at 500 and 2000 μg/mL doses” value in data set [1] (pH 6.5 buffer + 0.05% SLS, non-sink conditions) was “about 10%”. For the same compound, the “Flux in pH 6.5 buffer + 0.05% SLS compared with pH 6.5 buffer” value in data set [1] is given as “almost similar values”. Further, the “Calculated Pm (app)” value in data set [4] (pH 6.5 buffer + 0.05% SLS) is 5 ×10⁻⁶ cm/s. In addition, in data set [4] (pH 6.5 buffer + 0.05% SLS), the “Calculated Daq (app)” value is 3.54 × 10^−7 cm^2/s. The “Calculated Pm (U)” value was 5.12 ×10⁻⁶ cm/s in data set [4] (Equation (2)) and “around 0.0003 cm/min” in data set [4] (Equation (2), listed as triamcinolone). In addition, in data set [7], the “Log P” value is 1.03 [40, 42].

The values are drawn from PMC7998705, “Dose-Dependent Solubility–Permeability Interplay for Poorly Soluble Drugs under Non-Sink Conditions” (Pharmaceutics, 2021).
